Experimental findings from patent US9872514B2, “Compounds, compositions, and methods for reducing or eliminating bitter taste” (Chromocell Corporation, priority 2010, dated 2018) are described below.

Where two headings read alike, the source gives them in different places.

What all share (assay type): in vivo, humans
In test [1] the test system is bitter taste of an aqueous solution of KCl. Briefly: Sip and spit bitterness rating of aqueous KCl test solutions. As to conditions: Homo sapiens; aqueous KCl 4.85 g/L, 1% EtOH; bitterness scored 0-15 vs KCl standard; dash = none of the tested conc.; read-out: Conc. Where Decrease in Bitter Taste Discerned and p ≦ 0.1. The method, then:
An amount of this stock compound solution is then added to an aqueous KCl solution. Enough EtOH is then added to the resulting stock compound/KCl solution so that the final KCl test solution contains 1% EtOH. KCl solution standards were similarly prepared by dissolving various amounts of KCl in water and ethanol without adding any test compound.
The effect of the test compounds an the perception of the bitter taste of an aqueous solution of KCl in humans was evaluated using a “sip and spit” test as follows.
(§1) A set of KCl solution standards was developed and each standard solution was assigned a bitterness taste score of 0-15 (corresponding to aqueous KCl concentrations of 0 mM-120 mM). Panelists were trained to recognize these standards. In addition, before each day of testing, panelists were tested to see if they could determine differences in taste between the standard solutions. If a panelist was unable to recognize a change in KCl concentration, they were excluded from the panel for that day.
(§2) In a blind taste test, panelists were asked to compare the bitter taste of a small quantity (e.g., 8 ml) of each of the KCl Test Solutions to the taste of a KCl solution standard, without swallowing (see, e.g., Table 1). Specifically, panelists were asked to rate the bitterness of each KCl Test Solution on a scale of 0-15 using the same scale developed for the KCl solution standards. Each sample was tested in 2-4 discrete taste test experiments. Panelists were asked to rinse with water, eat a cracker, and wait approximately 10 minutes between samples.

For test [2], the system named is bitter taste of an aqueous solution of potassium lactate. The test is described as follows: Sip and spit bitterness rating of aqueous potassium lactate test solutions. As to conditions: Homo sapiens, aqueous potassium lactate 41 g/L, 1% EtOH, dash = none of the tested conc. The method, then:
as §1, §2
Edible potassium lactate solution compositions (“potassium lactate test solutions”) were prepared by first dissolving varying amounts of the test compounds in an amount of ethanol or water (depending on the solubility of the compound) to create a 5 mg/mL stock compound solution. An amount of this stock compound solution is then added to an aqueous potassium lactate solution. Enough EtOH is then added to the resulting stock compound/potassium lactate solution so that the final potassium lactate test solution contains 1% EtOH. Potassium lactate solution standards were similarly prepared by dissolving various amounts of potassium lactate in water and ethanol without adding any test compound.
The effect of the test compounds on the perception of the bitter taste of an aqueous solution of potassium lactate in humans was evaluated using the “sip and spit” test described in Example 2.

Test [3] deals with bitter taste of an aqueous solution of KCl. Briefly: Latin Square-2AFC sip and spit test of aqueous KCl solutions. As to conditions: Homo sapiens; aqueous KCl 4.85 g/L, Latin Square-2AFC vs KCl standard; dash = none of the tested conc.; read-out: Conc. at Which At Least 50% of Panelist Discerned Decrease in Bitter Taste. The method, then:
The effect of the test compounds on the perception of the bitter taste of an aqueous solution of KCl in humans was evaluated using a “sip and spit” test using a Latin Square-2AFC testing method as follows.
In a blind taste test, panelists were asked to compare the bitter taste of a small quantity (e.g., 8 ml) of a KCl Test Solution to the taste of a KCl solution standard (prepared as described in Example 1), without swallowing. NaCl solution standards were prepared as described in Example 1.
In order to eliminate any effects of sample order, a complete Latin Square design was employed so that each possible order of sample presentation was utilized across subjects. Each sample was tested in several discrete taste test experiments. Panelists were asked to rinse with water, eat a cracker, and wait about 10 minutes between samples. In each case, the panelists were asked to choose the sample which tasted “less bitter.” Illustrative results of the aqueous solution Latin Square-2AFC testing are presented in Table 5.

The subject of test [4] is bitter taste of KCl foodstuff slurries. Briefly: Latin Square-2AFC sip and spit test of KCl turkey slurry. As to conditions: 1.6% KCl, dash = none of the tested conc. The method, then:
The effect of the test compounds on the perception of the bitter taste of KCl foodstuff slurries in humans was evaluated using a “sip and spit” test using a Latin Square-2AFC testing method as follows.
In a blind taste test, panelists received two portions of turkey slurry—one portion being the KCl foodstuff slurry standard and the other being one of the KCl test foodstuff slurries (prepared as described in Example 5). NaCl foodstuff slurry standards were prepared as described in Example 1.
The panelists tasted each of the portions by sipping and spitting. In order to eliminate any effects of sample order, a complete Latin Square design was employed so that each possible order of sample presentation was utilized across subjects. Each sample was tested in several discrete taste test experiments. Panelists were asked to rinse with water, eat a cracker, and wait about 10 minutes between samples. In each case, the panelists were asked to choose the sample that tasted less bitter.

In test [5] the test system is bitter taste of KCl in solid-matrix foodstuffs. The test is described as follows: Latin Square-2AFC chew and spit test of KCl solid turkey. As to conditions: Homo sapiens, 1.6% KCl (80% KCl:20% NaCl marinade), dash = none of the tested conc., read-out: Conc. at Which At Least 50% of Panelist Discerned Decrease in Bitter Taste. The method, then: The effect of the test compounds on the perception of the bitter taste of KCl in solid-matrix foodstuffs in humans was evaluated using a “chew and spit” test using a Latin Square-2AFC testing method as follows.
Two types of marinades containing Prague powder, sugar, Evian™ water, KCl and/or NaCl in water were prepared. One marinade contained 80% KCl, 20% NaCl (by weight) (i.e., marinade concentration of […]). A second marinade contained 60% KCl:40% NaCl (by weight) (i.e., marinade concentration of 1.2% KCl). Compound stock solutions were prepared by dissolving an amount of test compound in ethanol or water (depending on the solubility of the compound) to create a 5 mg/mL stock compound solution. Enough ethanol was added to each stock compound solution to generate a final stock compound solution containing 1% ethanol. The marinade, the stock compound solution and ground turkey were added to a mixing bowl, mixed at low-speed for about 2 minutes, and then mixed at high-speed for about 5 minutes. The marinated turkey mixture was divided into one pound aliquots, vacuum sealed into food saver bags, and allowed to marinate for about 2 hours in a refrigerator. The vacuum-sealed turkey was then cooked in an about 86° C. water bath for about 30 minutes. If after about 30 minutes, the internal turkey temperature had not reached about 170° F., the vacuum-sealed turkey was cooked for about an additional 5 minutes. The vacuum-sealed turkey was then refrigerated for about two weeks before taste testing. KCl standards were similarly prepared by dissolving KCl in the marinade without adding any test compound during the turkey preparation.
The panelists tasted portions by chewing and spitting. In order to eliminate any effects of sample order, a complete Latin Square design was employed so that each possible order of sample presentation was utilized across subjects. Each simple was tested in several discrete taste test experiments. Panelists were asked to rinse with water, cat a cracker, and wait about 10 minutes between samples. In each case, the panelists were asked to choose the sample that tasted less bitter.

Setting [6] is: read-out: Conc. Where Decrease in Bitter Taste Was Discerned.

With `C/C=C/C(=O)C1C(C)=CCCC1(C)C` (stereo not drawn) [Compound 2], the minimal effective concentration in test [1] worked out at 10 µg/mL; in test [2] (setting [6]), 1 µg/mL; in test [3] it was 2 µg/mL; in test [5], 10 µg/mL. In addition, the “Conc. at Which At Least 50% of Panelist Discerned Decrease in Bitter Taste” value in test [4] turned out to be 25 ppm.
For the molecule `CC(C)=CCC/C(C)=C/COC(=O)Cc1ccccc1` [Compound 26], the minimal effective concentration came to 1 µg/mL in test [1]; 10 µg/mL in test [2] (read-out: Conc. Where Decrease in Bitter Taste Discerned and p ≦ 0.1); 10 µg/mL in test [2] (setting [6]). In test [4], the “Conc. at Which At Least 50% of Panelist Discerned Decrease in Bitter Taste” value turned out to be 0.6 ppm.
